# Target: SARS-CoV-2 NSP14 (Severe acute respiratory syndrome coronavirus 2, UniProt P0DTD1)
# Assay type: binding
structure (smiles),measurement,value
Cn1c[n+]([C@@H]2O[C@H](COP(=O)(O)OP(=O)([O-])OP(=O)(O)OC[C@H]3O[C@@H](n4cnc5c(=O)[nH]c(N)nc54)[C@H](O)[C@@H]3O)[C@@H](O)[C@H]2O)c2nc(N)[nH]c(=O)c21 [m7GpppG],Tm changes,negligible Tm changes
Nc1ncnc2c1ncn2[C@@H]1O[C@H](CSCC[C@H](N)C(=O)O)[C@@H](O)[C@H]1O [SAH],"Tm shift, maximum reached",≤ 10.0 °C
"Nc1nc2c(ncn2[C@@H]2O[C@H](COP(=O)(O)OP(=O)(O)OP(=O)(O)OC[C@H]3O[C@@H](n4cnc5c(=O)[nH]c(N)nc54)[C@H](O)[C@@H]3O)[C@@H](O)[C@H]2O)c(=O)[nH]1 [GpppG, G(5′)ppp(5′)G RNA Cap Structure Analog]",Tm changes,negligible Tm changes
"C[S+](CC[C@H](N)C(=O)[O-])C[C@H]1O[C@@H](n2cnc3c(N)ncnc32)[C@H](O)[C@@H]1O (stereo partly shown) [SAM, S-adenosylmethionine]",Tm changes,negligible Tm changes
